Experimental data as given in patent US20040221332A1, “Plant growth regulating genes, proteins and uses thereof” (priority 2001, published 2004).
Like-named read-outs stand apart in the source and are kept apart here.

Tests used:
[1] = tested on: OsGREP1 transcript levels; test: RNA gel blot of OsGREP1 mRNA in deepwater rice stem sections treated with gibberellin; design: species or system Oryza sativa; details: 50 μM GA3, stem sections, meristematic zone, within 30 minutes and again 15 h after onset
Protocol: Analysis of hormone and inhibitor effects was performed using excised stem segments containing the youngest growth-responsive internode (Raskin & Kende, 1984). Growth of the stem sections was induced by application of 50 μM GA3 for the times indicated. To inhibit protein synthesis, stem sections were incubated in aqueous solutions of cycloheximide for the times indicated. Plant tissue for RNA extraction was harvested on ice and immediately after harvest frozen in liquid nitrogen. Meristematic tissue was harvested from 0 to 5 mm above the second youngest node, i.e. the intercalary meristem (IM). […]
To determine gene expression under different conditions and in different rice tissues, mRNA abundance of OsGREP1 was analyzed by RNA gel blot hybridization. […]
mRNA abundance of OsGREP1 was also analyzed in different tissues of adult rice plants and seedlings and in suspension-cultured rice cells by RNA gel blot analysis (FIG. 7). […] OsGREP1 mRNA can also be detected in suspension-cultured cells but at lower levels than in all other tissues. […] Stem sections containing the IM and EZ of the internode were treated with 50 μM GA3 and analyzed for expression of OsGREP1 by RNA gel blot hybridization 0, […], 1, 3, 6 and 15 h after treatment (FIG. 8).

OsGREP1 transcripts = test: RNA gel blot of OsGREP1 mRNA in deepwater rice internode sections treated with cycloheximide; design: species or system Oryza sativa
Protocol: Analysis of hormone and inhibitor effects was performed using excised stem segments containing the youngest growth-responsive internode (Raskin & Kende, 1984). Growth of the stem sections was induced by application of 50 μM GA3 for the times indicated. To inhibit protein synthesis, stem sections were incubated in aqueous solutions of cycloheximide for the times indicated. Plant tissue for RNA extraction was harvested on ice and immediately after harvest frozen in liquid nitrogen. Meristematic tissue was harvested from 0 to 5 mm above the second youngest node, i.e. the intercalary meristem (IM). Cells which are predominately involved in elongation were harvested from 5 to 15 mm above the second youngest node, i.e. the elongation zone (EZ) and differentiated tissue was harvested from the oldest part of the internode below the youngest node, i.e. the differentiation zone (DZ).
To determine gene expression under different conditions and in different rice tissues, mRNA abundance of OsGREP1 was analyzed by RNA gel blot hybridization. Total RNA was isolated using the TRIzol reagent (Gibco BRL) and precipitated with 4M LiCl as described (Puissant & Houdebine, 1990). […]
Gene expression of OsGREP1 was also determined by measuring mRNA abundance in IM sections of deepwater rice internodes treated with cycloheximide (CHX) at 0, 0.02, 2, and 20 μg/ml (FIG. 9). […]

protein synthesis [2] = details: maize, 20 μM CHX; cited from earlier work
protein synthesis [3] = details: alfalfa, 150 μM; cited from earlier work
Arabidopsis thaliana = test: Phenotypic characterization of transgenic plants transformed with OsPSK (digital imaging of rosette and inflorescence); type: in vivo
Protocol: Of 11 different transgenic plant lines of Arabidopsis thaliana (named AE0017, AE0018, AE0019, AE0021, AE0022, AE0023, AE0024, AE0025, AE0026, AE0027 and Os-PSK) 500 mg of seeds is placed in 50 ml plastic tubes. 27 ml of a 0.2% agar solution is added and mixed to suspend the seeds. The said tubes are stored at 4° C. for 3 days to release dormancy. Subsequently, the suspension of seeds was evenly dispensed as drops of 50 μl on a 50 cm by 30 cm tray containing a mixture of sand and soil in a ratio of 1 to 2.
The trays were placed in the greenhouse under the following conditions: 22° C. at day time, 18° C. at night, 60% RH, 20 hours of photoperiod, subirrigation once a day with water during 15 min. The 4th day and the 10th day after sowing, the seedlings were sprayed with an herbicide solution. The 14th day after sowing, 30 resistant seedlings of each transgenic line were transplanted in individual pots with a diameter of 10 cm containing a mixture of sand and peat in a ratio of 1 to 3.
Said pots are then placed in the greenhouse under the same conditions as described for the trays. The pots are subirrigated during 15 min. once a week, or more if needed. The 14th, 18th, 21st, 28th, 32nd and 39th day after sowing, the rosettes of each plant were photographed using a digital camera and the pictures were stored for further analysis.
The 32nd, 38th, 41 st, 46th, 49th, and 53rd day after sowing, the inflorescence of each plant was photographed equally using a digital camera and the pictures were stored for further analysis. The number of pixels corresponding to plant tissues was recorded on each picture, converted to square cm and used as a measurement of plant size.

C=C1C[C@]23C[C@@]1(O)CC[C@H]2[C@@]12C=C[C@H](O)[C@@](C)(C(=O)O1)[C@H]2[C@@H]3C(=O)O [GA3, gibberellic acid]
OsGREP1 transcript levels [1]: slight and transient increase | OsGREP1 transcript levels ([1]; listed as GA): induced

C[C@@H]1C[C@@H]([C@H](O)CC2CC(=O)NC(=O)C2)C(=O)[C@@H](C)C1 [cycloheximide]
OsGREP1 transcripts (OsGREP1 transcripts; IM sections of deepwater rice internodes, 20 μg/ml (corresponds to 70 μM) CHX): induced | cycloheximide concentration at which OsGREP1 transcripts accumulate (OsGREP1 transcripts; stem sections of deepwater rice, 0 to 20 μg/ml tested): ≥ 0.2 µg/mL | inhibition of protein synthesis (protein synthesis [2]): 23% | inhibition of protein synthesis (protein synthesis [3]): 90%

B1: OsPSK: rice growth regulating polypeptide, prepro-phytosulfokine (SEQ ID NO 104/105), overexpressed in transgenic Arabidopsis under sunflower ubiquitin promoter (protein, listed as Oryza sativa)
chain: MVNPGRTARALCLLCLALLLLGQDTHSRKLLLQEKHSHGVGNGTTTTQEPSRENGGSTGSNNNGQLQFDSAKWEEFHTDYIYTQDVKNP
ratio between size of inflorescence before harvest and maximal measured size of the rosette (Arabidopsis thaliana; OsPSK plants vs other transgenic plant lines in the same experiment): significantly higher | rosette size (Arabidopsis thaliana; OsPSK transgenic line vs other transgenic lines): slightly bigger | plant size (Arabidopsis thaliana; OsPSK transgenic line vs the other transgenic plant lines in the experiment): on average the biggest plants
